Activity calls are given as the source filed them.

This is an account of results in ChEMBL document CHEMBL1201862, “PubChem BioAssay data set” (2004).

In one assay the target is T1, Coagulation factor XII (Homo sapiens, UniProt P00748).
T1 sequence (P00748 whole entry): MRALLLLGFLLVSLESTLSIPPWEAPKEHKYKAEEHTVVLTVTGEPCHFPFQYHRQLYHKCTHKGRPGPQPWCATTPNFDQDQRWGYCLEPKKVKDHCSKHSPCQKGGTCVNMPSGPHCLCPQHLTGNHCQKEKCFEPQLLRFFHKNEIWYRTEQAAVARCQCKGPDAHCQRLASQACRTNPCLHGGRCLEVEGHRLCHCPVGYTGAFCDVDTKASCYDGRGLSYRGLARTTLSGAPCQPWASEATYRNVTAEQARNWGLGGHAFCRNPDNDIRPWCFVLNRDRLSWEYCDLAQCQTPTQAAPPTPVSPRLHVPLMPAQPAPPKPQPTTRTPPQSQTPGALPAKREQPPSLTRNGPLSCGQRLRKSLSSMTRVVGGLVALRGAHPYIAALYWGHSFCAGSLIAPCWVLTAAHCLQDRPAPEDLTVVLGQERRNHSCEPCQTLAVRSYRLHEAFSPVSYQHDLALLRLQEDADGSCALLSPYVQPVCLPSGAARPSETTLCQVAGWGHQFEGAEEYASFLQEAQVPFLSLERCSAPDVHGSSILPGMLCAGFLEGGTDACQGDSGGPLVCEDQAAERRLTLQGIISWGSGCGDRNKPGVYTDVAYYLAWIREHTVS
Nature of the assay: Factor XIIa Dose Response Confirmation from Single Well HTS. [Related pubchem assays (depositor defined):AID701]. The format is functional.

Another assay deals with Genome polyprotein (dengue virus type 2, UniProt P29990). Put plainly: flavivirus cap methylation enzyme inhibition – biochemical, confirmation dose response, primary screen (AID 588689). The format is functional.
Genome polyprotein, sequence (P29990 2492-3391 limits assumed): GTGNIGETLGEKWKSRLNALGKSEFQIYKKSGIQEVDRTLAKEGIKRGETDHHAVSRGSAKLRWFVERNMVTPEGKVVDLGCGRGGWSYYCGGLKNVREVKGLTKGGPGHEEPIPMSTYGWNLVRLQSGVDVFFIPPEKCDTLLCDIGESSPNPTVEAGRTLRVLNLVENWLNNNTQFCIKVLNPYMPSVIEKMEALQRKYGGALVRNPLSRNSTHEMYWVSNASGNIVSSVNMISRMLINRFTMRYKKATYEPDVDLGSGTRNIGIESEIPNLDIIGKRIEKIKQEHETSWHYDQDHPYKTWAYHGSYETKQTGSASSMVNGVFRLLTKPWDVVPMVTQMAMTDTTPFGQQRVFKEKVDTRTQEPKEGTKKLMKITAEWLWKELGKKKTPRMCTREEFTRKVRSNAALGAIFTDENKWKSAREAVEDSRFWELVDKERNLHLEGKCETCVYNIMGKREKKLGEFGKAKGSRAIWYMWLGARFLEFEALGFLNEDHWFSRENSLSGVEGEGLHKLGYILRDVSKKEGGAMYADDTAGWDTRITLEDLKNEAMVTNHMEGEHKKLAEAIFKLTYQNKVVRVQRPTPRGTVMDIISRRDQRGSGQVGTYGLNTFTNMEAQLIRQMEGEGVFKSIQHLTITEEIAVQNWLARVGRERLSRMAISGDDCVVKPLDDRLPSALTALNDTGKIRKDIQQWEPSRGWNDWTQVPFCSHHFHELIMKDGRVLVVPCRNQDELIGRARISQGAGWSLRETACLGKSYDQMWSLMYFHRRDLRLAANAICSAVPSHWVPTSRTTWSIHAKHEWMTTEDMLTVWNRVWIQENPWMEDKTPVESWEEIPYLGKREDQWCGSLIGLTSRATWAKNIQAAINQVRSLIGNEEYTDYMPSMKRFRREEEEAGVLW
Assay [1] deals with Lysine-specific demethylase 4A (Homo sapiens, UniProt O75164). Nature of the assay: inhibition of JMJD2A H3K9me3 demethylation – biochemical, DELFIA europium, cherry-picked samples, selectivity assay for GASC-1 inhibitor project, dose response (AID 488840).
Lysine-specific demethylase 4A, sequence (O75164 whole entry): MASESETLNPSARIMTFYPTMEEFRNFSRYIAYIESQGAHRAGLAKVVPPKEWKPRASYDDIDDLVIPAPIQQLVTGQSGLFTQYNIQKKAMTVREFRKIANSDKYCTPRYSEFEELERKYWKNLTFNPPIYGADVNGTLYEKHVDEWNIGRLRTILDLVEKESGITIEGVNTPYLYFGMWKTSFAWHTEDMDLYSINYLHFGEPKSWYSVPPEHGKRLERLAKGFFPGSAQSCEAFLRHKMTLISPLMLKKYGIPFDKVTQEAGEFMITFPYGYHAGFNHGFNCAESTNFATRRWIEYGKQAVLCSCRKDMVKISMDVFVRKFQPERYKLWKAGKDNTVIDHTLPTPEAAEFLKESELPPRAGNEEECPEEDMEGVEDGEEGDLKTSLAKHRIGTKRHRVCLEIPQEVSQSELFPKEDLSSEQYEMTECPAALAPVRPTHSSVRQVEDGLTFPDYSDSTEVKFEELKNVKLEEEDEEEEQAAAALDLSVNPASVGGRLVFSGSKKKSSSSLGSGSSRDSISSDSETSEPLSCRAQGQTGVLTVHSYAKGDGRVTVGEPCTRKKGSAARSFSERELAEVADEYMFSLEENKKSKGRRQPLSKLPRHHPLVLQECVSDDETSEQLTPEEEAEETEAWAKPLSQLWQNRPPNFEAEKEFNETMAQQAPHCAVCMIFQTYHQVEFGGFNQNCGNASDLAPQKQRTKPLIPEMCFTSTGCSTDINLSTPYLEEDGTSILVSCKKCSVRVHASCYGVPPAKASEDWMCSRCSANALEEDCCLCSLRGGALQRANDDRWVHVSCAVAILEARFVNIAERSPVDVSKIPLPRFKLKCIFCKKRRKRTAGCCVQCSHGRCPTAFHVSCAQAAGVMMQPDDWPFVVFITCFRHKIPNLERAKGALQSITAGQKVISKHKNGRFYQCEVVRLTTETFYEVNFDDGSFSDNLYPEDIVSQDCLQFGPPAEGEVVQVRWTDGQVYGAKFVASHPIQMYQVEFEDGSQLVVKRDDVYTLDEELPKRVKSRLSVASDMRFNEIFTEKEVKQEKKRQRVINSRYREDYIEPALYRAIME
In a further assay the target is Tumor necrosis factor (Homo sapiens, UniProt P01375). Nature of the assay: analog potency on TNFa NF-kB signaling – cell-based, set 3, SAR follow-up (AID 2801). The class given is functional.
Tumor necrosis factor, sequence (P01375 whole entry, the tested form may be a part): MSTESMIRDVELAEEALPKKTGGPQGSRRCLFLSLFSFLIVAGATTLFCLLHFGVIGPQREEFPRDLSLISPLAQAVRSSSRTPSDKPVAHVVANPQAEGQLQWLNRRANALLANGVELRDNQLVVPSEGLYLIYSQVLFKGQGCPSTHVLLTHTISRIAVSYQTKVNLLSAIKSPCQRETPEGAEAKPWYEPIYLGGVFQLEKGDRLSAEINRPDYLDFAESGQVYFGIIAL
The target of assay [2] is T2, Nucleotide-binding oligomerization domain-containing protein 1 (Homo sapiens, UniProt Q9Y239).
T2 sequence (Q9Y239 whole entry): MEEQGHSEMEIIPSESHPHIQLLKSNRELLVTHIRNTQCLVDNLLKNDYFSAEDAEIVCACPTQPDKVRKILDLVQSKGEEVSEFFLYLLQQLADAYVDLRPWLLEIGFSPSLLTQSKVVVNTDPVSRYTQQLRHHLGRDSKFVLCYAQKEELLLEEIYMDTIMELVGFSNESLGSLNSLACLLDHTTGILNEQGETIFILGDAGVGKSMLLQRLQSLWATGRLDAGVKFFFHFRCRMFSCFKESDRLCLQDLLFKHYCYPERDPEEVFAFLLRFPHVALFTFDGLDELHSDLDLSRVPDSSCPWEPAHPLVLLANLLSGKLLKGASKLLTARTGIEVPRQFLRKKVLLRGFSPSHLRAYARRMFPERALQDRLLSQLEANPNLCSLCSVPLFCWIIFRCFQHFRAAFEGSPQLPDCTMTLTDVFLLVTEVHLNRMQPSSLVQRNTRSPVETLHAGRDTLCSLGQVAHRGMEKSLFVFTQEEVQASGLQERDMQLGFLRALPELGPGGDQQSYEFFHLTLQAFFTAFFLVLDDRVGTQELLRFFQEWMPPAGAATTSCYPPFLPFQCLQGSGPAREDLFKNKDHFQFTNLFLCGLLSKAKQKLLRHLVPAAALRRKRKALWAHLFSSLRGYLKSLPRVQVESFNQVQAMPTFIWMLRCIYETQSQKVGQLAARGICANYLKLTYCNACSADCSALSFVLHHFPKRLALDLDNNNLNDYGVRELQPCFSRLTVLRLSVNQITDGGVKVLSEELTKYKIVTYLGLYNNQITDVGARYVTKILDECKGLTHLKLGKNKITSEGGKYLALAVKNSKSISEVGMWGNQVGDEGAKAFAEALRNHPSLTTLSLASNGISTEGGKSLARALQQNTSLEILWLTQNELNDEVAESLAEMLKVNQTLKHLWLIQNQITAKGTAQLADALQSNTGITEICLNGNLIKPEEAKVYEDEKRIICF
Nature of the assay: SAR analysis of compounds that inhibit NOD1 - Set 3. [Related pubchem assays (depositor defined):AID1566, AID1575, AID1578, AID1849, AID1852, AID2333, AID2335, AID2466]. The class given is functional.

For the next assay, the system named is HEK293. Nature of the assay: SAR analysis of compounds that are cytotoxic to HEK293 - Set 3. [Related pubchem assays (depositor defined):AID1575, AID1578, AID1848, AID1849, AID2001, AID2333, AID2334, AID2335, AID2337, AID2469]. The class given is functional, cell-based. To be noted: Homo sapiens.
In assay [3] the target is Nucleotide-binding oligomerization domain-containing protein 2 (Homo sapiens, UniProt Q9HC29). Put plainly: inhibition of MDP-driven NOD2 NF-kB reporter – cell-based, set 3, SAR follow-up (AID 2799). The class given is functional.
Nucleotide-binding oligomerization domain-containing protein 2, sequence (Q9HC29 whole entry, the tested form may be a part): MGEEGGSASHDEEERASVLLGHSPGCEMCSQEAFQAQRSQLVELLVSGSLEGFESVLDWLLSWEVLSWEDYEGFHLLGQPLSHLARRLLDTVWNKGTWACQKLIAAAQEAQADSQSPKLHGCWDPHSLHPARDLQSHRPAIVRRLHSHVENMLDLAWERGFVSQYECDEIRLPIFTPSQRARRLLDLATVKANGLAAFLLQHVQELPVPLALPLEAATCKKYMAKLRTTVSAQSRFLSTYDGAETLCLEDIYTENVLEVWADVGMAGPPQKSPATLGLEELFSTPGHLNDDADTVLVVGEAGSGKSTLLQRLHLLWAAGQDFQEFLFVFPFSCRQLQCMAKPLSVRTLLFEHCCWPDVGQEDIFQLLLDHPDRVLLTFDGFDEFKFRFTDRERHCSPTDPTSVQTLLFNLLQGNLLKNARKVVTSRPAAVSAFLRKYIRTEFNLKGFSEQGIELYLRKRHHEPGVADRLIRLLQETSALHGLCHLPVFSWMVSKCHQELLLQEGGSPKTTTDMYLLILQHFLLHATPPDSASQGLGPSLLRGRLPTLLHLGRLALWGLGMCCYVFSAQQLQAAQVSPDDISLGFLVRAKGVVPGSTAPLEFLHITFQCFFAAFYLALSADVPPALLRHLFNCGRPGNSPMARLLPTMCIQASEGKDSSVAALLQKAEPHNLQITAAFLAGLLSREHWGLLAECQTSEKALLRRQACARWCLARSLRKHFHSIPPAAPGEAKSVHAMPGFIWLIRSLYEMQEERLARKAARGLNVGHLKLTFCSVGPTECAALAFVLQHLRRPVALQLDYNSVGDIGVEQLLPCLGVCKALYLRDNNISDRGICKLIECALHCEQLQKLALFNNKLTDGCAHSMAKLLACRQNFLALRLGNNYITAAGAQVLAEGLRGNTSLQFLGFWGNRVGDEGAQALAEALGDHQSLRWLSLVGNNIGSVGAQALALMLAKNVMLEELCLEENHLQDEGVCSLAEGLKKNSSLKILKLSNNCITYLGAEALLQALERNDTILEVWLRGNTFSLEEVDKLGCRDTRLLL
The nature of assay [4]: DRD fibroblast viability loss – cell-based, non-viral oncogenic, luminescence, dose response (AID 1934). To be noted: Homo sapiens. The class given is functional.
In assay [5] the test system is BJ. Put plainly: BJ-TERT-LT-ST fibroblast viability loss – cell-based, RAS-independent, luminescence, dose response (AID 1935).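 Also: BJ fibroblasts immortalized with TERT plus LT and ST oncogenes.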 The following applies: Homo sapiens. The format is functional.
The subject of assay [6] is BJ. Put plainly: BJ-TERT fibroblast viability loss – cell-based, RAS-independent, luminescence, dose response (AID 1933). The class given is functional. To be noted: Homo sapiens.
The target of assay [7] is DNA damage-inducible transcript 3 protein (Mus musculus, UniProt P35639). The format is functional, Cricetulus griseus.
DNA damage-inducible transcript 3 protein, sequence (P35639 whole entry): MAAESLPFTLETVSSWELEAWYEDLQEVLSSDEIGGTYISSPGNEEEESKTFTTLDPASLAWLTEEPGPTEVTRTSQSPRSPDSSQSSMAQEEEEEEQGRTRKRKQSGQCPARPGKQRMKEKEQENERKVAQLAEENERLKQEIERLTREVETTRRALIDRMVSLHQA
Assay [8] concerns BJ. Put plainly: cells. The following applies: Homo sapiens. The class given is functional, cell-based.
Assay [9] deals with FAD-linked sulfhydryl oxidase ALR (Homo sapiens, UniProt P55789). Nature of the assay: ALR-catalysed DTT oxidation blockers – biochemical, H2O2 detection, luminescence, cherry-pick, dose response (AID 493248).
FAD-linked sulfhydryl oxidase ALR, sequence (P55789 whole entry, the tested form may be a part): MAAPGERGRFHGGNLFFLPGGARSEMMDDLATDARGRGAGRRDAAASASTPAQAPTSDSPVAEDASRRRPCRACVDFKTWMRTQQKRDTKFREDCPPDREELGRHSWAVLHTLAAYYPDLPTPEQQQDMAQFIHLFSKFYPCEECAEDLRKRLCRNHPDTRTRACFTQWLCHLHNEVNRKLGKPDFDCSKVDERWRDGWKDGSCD
The target in assay [10] is T3, Runt-related transcription factor 1/Core-binding factor subunit beta (Homo sapiens, UniProt Q01196+Q13951). Put plainly: disruptors of Runt domain/CBFb-SMMHC interaction – biochemical, FRET, Cerulean-Runt, Venus-CBFb-SMMHC, uHTS, […] (AID 1434). The format is protein assay.
T3 sequence (Q01196 whole entry, the tested form may be a part): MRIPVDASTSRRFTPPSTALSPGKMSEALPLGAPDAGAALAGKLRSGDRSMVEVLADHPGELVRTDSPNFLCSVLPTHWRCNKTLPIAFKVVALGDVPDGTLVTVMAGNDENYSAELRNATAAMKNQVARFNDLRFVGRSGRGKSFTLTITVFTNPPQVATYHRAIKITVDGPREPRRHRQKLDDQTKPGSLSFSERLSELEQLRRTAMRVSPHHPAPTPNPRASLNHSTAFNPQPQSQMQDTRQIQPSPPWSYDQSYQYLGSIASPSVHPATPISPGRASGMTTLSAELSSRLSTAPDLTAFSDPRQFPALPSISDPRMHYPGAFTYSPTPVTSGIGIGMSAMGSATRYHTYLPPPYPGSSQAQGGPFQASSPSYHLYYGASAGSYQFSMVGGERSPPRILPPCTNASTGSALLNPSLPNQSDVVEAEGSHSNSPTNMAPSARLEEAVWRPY
T3 sequence (Q13951 whole entry, the tested form may be a part): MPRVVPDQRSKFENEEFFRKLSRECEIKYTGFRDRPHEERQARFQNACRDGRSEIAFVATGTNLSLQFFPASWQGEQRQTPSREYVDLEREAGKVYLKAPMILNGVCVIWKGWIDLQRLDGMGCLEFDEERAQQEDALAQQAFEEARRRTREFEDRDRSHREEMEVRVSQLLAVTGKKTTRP
The next assay has as its target Protein Tat (Human immunodeficiency virus type 1 group M subtype B (isolate HXB2)(HIV-1), UniProt P04608). The class given is functional.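 Also: tat binding to TAR RNA read out by fluorescence polarization.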
For another assay, the target named is T4, Hexokinase HKDC1 (Homo sapiens, UniProt Q2TB90).
T4 sequence (Q2TB90 whole entry): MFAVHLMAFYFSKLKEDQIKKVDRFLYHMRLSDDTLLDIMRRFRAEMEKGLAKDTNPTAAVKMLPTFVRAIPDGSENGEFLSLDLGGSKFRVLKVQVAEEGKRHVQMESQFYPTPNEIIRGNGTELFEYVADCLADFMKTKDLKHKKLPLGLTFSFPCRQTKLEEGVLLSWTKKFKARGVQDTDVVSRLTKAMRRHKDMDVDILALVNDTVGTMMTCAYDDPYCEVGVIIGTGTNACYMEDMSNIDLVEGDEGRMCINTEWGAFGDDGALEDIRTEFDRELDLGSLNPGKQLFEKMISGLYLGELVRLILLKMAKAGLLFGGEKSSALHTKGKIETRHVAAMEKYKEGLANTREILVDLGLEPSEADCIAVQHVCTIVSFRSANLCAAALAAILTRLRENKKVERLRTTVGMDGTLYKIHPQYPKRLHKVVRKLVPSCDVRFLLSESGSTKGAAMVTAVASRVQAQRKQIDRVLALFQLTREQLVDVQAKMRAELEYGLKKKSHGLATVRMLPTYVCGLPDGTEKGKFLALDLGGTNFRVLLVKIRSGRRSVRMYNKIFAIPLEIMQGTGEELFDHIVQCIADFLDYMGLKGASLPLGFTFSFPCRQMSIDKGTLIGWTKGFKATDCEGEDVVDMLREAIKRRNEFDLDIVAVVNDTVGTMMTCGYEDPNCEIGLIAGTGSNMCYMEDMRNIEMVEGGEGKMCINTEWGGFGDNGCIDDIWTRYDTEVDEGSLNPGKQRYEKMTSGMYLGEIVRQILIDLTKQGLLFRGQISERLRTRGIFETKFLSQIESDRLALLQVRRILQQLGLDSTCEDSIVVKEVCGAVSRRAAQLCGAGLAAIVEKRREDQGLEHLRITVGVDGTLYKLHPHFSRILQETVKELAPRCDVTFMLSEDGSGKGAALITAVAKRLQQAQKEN
Put plainly: inhibition of HKDC1 glucose phosphorylation – biochemical, W721R variant, dose response (AID 504729). The format is functional.

The target in assay [11] is T3, Runt-related transcription factor 1/Core-binding factor subunit beta. Put plainly: Runt domain/CBFb-SMMHC interaction disruptors – biochemical, TR-FRET (AID 1438). The format is protein assay.
Assay [12] addresses T5, Polyadenylate-binding protein 1 (Homo sapiens, UniProt P11940). Nature of the assay: MLLE binding blockers, Cy5 peptide tracer – biochemical, fluorescence polarization, Cy5-PAM2 peptide, secondary, miRNA deadenylation inhibitor project, dose response (AID 602260). The class given is functional. To be noted: read-out: IC50_Mean.
The target of assay [13] is T5, Polyadenylate-binding protein 1. Put plainly: MLLE domain peptide-binding blockers, IC50 – biochemical, fluorescence polarization, FITC-PAM2 peptide, dose response (AID 602259). The class given is functional. The following applies: read-out: IC50_Mean.

T5 sequence (P11940 whole entry, the tested form may be a part): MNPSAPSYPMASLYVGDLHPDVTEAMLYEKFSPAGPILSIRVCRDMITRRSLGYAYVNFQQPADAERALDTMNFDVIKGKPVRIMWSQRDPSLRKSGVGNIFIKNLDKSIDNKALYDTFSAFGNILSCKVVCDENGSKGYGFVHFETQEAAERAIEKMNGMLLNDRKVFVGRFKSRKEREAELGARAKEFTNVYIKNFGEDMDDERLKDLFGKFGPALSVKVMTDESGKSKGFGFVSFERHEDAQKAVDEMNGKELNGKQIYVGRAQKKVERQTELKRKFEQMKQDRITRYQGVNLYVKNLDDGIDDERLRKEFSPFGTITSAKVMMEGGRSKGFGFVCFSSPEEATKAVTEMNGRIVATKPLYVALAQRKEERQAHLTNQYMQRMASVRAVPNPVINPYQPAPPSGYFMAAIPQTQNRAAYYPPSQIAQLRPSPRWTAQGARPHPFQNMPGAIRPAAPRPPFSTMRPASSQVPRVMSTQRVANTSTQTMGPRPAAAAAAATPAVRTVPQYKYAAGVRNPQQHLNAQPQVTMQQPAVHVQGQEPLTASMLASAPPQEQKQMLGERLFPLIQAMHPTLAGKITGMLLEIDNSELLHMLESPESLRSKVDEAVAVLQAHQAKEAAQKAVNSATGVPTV
Protein Tat, sequence (P04608 whole entry): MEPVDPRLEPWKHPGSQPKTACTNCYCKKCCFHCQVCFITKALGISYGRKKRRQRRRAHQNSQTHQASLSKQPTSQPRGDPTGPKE

As to `O=C1C(Cl)=C(N2CCOCC2)C(=O)N1c1ccccc1`, the IC50 was > 50 µM (inactive) on Coagulation factor XII and 18.7 µM (active) on Genome polyprotein.
Take `COc1ccc(N2CCN(C(=O)CSc3nnc(-c4cccnc4)n3-c3ccccc3)CC2)cc1`: in [1], the AC50 is > 60 µM (inactive).
Regarding `CC(C)C(=O)N(C)C(c1ccccc1)c1c[nH]c2ccccc12` (centres undefined), the IC50 (at Tumor necrosis factor; in assay [2]; with HEK293; in assay [3]) was > 20 µM (inactive) in each case.
For `COc1ccc(N/N=C(\C=N\O)C(=O)c2ccc(OC)cc2)cc1`, the EC50 in assay [4] was 1.15 µM (active); in the assay with BJ [5] it was 2.41 µM (inconclusive); in the assay with BJ [6] it was 1.56 µM (inconclusive); with BJ [8], 49 µM (active). Further, the “Absolute IC50 (CHOP)” value in assay [7] worked out at 10 µM. Also, in [9], the AC50 was 0.009 µM (active).
For the compound `COc1ccc(N2C3=C(CC4=C2CCCC4=O)C(=O)CCC3)cc1`, the IC50 in assay [10] is 0.372 µM (active); on Protein Tat, > 100 µM (active); on Hexokinase HKDC1, 8.05 µM (active); in assay [11] it was 17.7 µM (active); in [12], > 66 µM (inactive); in assay [13], > 66 µM (inactive).
